{
  "source": "patent US20200384007A1",
  "about": "“LIPID NANOPARTICLES CONTAINING PHARMACEUTICAL AND/OR NUTRACEUTICAL AGENTS AND METHODS THEREOF” (Board of Regents, The University of Texas System, priority 2019, published 2020)",
  "key": {"[1]": {"settings": "in an aqueous solution, DBA/2 mice; cited from earlier work"}, "[2]": {"settings": "in water; cited from earlier work"}, "B16-F10 tumors [3]": {"tested_on": "B16-F10 tumors", "assay": "Histology (H&E) of tumor tissues", "type": "in vivo, C57BL/6 mice", "settings": "tumors collected on day 17 after i.v. treatment", "text": "Tumor tissues were fixed in formalin, embedded, and stained with hematoxylin and eosin (H&E) in the Histological and Tissue Analysis Facility in the Dell Pediatric Research Institute at The University of Texas at Austin."}, "[4]": {"assay": "Physical and chemical stability as lyophilized powder or dry waxy solid at room temperature", "type": "physicochemical", "settings": "DHA-dFdC-vitamin E (5.047% w/w) waxy solid mixture, 14 days", "description": "A 30% (w/v) stock solution of sucrose as lyoprotectant was prepared with de-ionized and filtered (0.2 μm) water. 900 μL DHA-dFdC-SLNs in water suspension was mixed with 100 μL sucrose solution to obtain a final suspension having 3% (w/v) sucrose. DHA-dFdC-SLNs in suspension were stored at −20° C. for 30 min, transferred to −80° C. for 60 min, and finally transferred to a VirTis Advantage bench top tray lyophilizer (The VirTis Company, Inc. Gardiner, N.Y.). Lyophilization was performed over 72 hours (h) at pressure less than 200 mTorr under nitrogen atmosphere. The shelf temperature was gradually ramped from −40° C. to 26° C. After lyophilization, samples were sealed and stored in a desiccator at room temperature, protected from light.\nTo evaluate the physical and chemical stability of DHA-dFdC-SLNs in lyophilized powder, DHA-dFdC was extracted from the powder 0, 7, and 30 days post-storage. Lyophilized samples were reconstituted in 1 mL de-ionized and filtered (0.2 μm) water. […] The sample was re-dissolved in 100 μL of THF, and concentration was measured by HPLC.\nAs a control, DHA-dFdC was dissolved in ethanol and mixed with vitamin E at a final concentration of 5.047% (w/w) (Naguib et al., Neoplasia, 2016; 18(1):33-48). The solution was dried under nitrogen, sealed, and stored at room temperature, protected from light, and the content of DHA-dFdC was measured at various time points"}, "pancreatic tumor": {"tested_on": "pancreatic tumor", "settings": "several mouse models of pancreatic cancer; cited from earlier work"}, "[5]": {"tested_on": "NCI-60 DTP human tumor cell lines", "settings": "cited from earlier work"}, "[6]": {"assay": "Pharmacokinetic studies, oral and i.v. (Example 2)", "type": "in vivo, C57BL/6 mice", "description": "The Institutional Animal Care and Use Committee at The University of Texas at Austin approved the animal protocol. Female C57BL/6 mice (6-8 weeks, Charles River Laboratories, Wilmington, Mass.) were fasted for 3 h. Water was allowed ad libitum. Mice were orally gavaged with DHA-dFdC dissolved in a vehicle solution (Tween 80 (10%, w/v), ethanol (5.2% v/v), and mannitol (5%, w/v) in sterile water) (Naguib, et al., Neoplasia, 2016, 18, (1), 33-48; Valdes, et al., Pharma. Res., 2017, 34, (6), 1224-1232) or the DHA-dFdC-SLNs suspended in a sterile mannitol solution (5%, w/v), or intravenously injected with the DHA-dFdC-SLNs suspended in a sterile mannitol solution (5%, w/v). The dose of DHA-dFdC was 2 mg per mouse. Mice (n=3) were euthanized at various time points (e.g., 0.25, 0.5, 1, 2, 5, 8, 12, and 24 h). Blood was collected into heparin-coated tubes, which were then centrifuged at 13,000 rcf for 20 min to isolate plasma. The plasma (200 μL) was mixed with 200 μL of isopropanol and 200 μL of cold PBS, vortexed and then incubated at 4° C. for 5 min Following incubation, 1000 μl of ethyl acetate was added. The mixture was vortexed for 5 min, followed by centrifugation at 18,000 rcf for 5 min. The supernatant was collected and dried under nitrogen. Finally, the residue was re-dissolved in 100 μl of THF, which was then analyzed using HPLC (Naguib, et al., Neoplasia, 2016, 18, (1), 33-48). As internal control 4-(N)-stearoyl 2′,2′-difluorodeoxycytidine (GemC18) was added in the samples before extraction (Sloat, et al., Intl. J. Pharma., 2011, 409, (1), 278-288). Data were analyzed using PK Solver®, assuming a two-compartmental model (Wang, et al., Oncotarget, 2017, 8, (52), 89876)."}, "B16-F10 tumors [7]": {"tested_on": "B16-F10 tumors", "assay": "Antitumor activity of orally administered DHA-dFdC-SLNs in tumor-bearing mice (survival)", "type": "in vivo", "settings": "oral gavage", "description": "Female C57BL/6 mice (18-20 g) were subcutaneously (s.c) injected with B16-F10 (5×10^5 cells/mouse) in the right flank on day 0. Seven days later, mice were randomized into 4 groups (n=7-8) and orally gavaged with DHA-dFdC (250 μg/mouse) dissolved in vehicle (Naguib, et al., Neoplasia, 2016, 18, (1), 33-48; Valdes, et al., Pharma. Res., 2017, 34, (6), 1224-1232), DHA-dFdC-SLNs (250 μg/mouse of DHA) dispersed in mannitol 5%, or DHA-dFdC-free SLNs dispersed in mannitol 5%. As a control, one group of mice were left untreated. Treatment was repeated every day until day 11. Mice were allowed to rest for two days, and treatment was resumed on day 13 and continued until day 20. Mice were monitored daily until the endpoint (e.g., death, tumor size reaching 15 mm, tumor ulceration, body weight loss of more than 20%, or other signs of severe distress and discomfort)."}, "B16-F10 cells": {"tested_on": "B16-F10 cells", "assay": "In vitro cytotoxicity assay (MTT)", "type": "cell-based, murine", "settings": "Mus musculus, B16F10 cells, 48 h of incubation", "description": "(§1) Cytotoxicity of DHA-dFdC-SLNs was evaluated in TC-1, B16-F10, and M-Wnt cells. Cells were seeded into 96-well plates (4000 cells/well for TC-1 and B16-F10 cells, 1000 cells/well for M-Wnt cells) and incubated at 37° C., 5% CO2 overnight. Cells were treated with various concentrations of DHA-dFdC, DHA-dFdC-SLNs, DHA-dFdC-free SLNs, or dimethyl sulfoxide (DMSO) for up to 48 h. As a control, cells were treated with fresh medium. Cell survival was determined using an MTT assay (Naguib et al., Mol. Pharma., 2014; 11(4):1239-1249). DHA-dFdC was dissolved in DMSO and diluted with cell culture media, whereas DHA-dFdC-SLNs and DHA-dFdC-free SLNs were dispersed directly in cell culture media."}, "M-Wnt cells": {"tested_on": "M-Wnt cells", "assay": "In vitro cytotoxicity assay (MTT)", "type": "cell-based, murine", "settings": "Mus musculus, 24 h of incubation", "description": "as §1"}, "B16-F10 tumors [8]": {"tested_on": "B16-F10 tumors", "assay": "Antitumor activity of i.v. DHA-dFdC-SLNs in a mouse model", "type": "in vivo", "settings": "50 mg/kg DHA-dFdC on days 7, 10, 13, 16", "description": "Female C57BL/6 mice (18-20 g, 6-8 weeks) were subcutaneously (s.c.) injected with B16-F10 (5×10^5 cells/mouse) in the right flank on day 0. Seven days later, mice were randomized in 5 groups (n=5-6) and i.v. injected with DHA-dFdC (1 mg/mouse, equivalent to 50 mg/kg) dissolved a vehicle solution (Tween 80 (10%, w/v), ethanol (5.2%, v/v), and mannitol (5%, w/v) in water), the vehicle solution (as a control) (Naguib et al., Neoplasia, 2016; 18(1):33-48; Valdes et al., Pharma. Res., 2017; 34(6):1224-1232), DHA-dFdC-SLNs (equivalent to 1 mg of DHA-dFdC/mouse), or the equivalent dose of DHA-dFdC-free SLNs; both SLNs were dispersed in sterile mannitol 5%, (w/v). As a control, one group of mice were left untreated. Treatments were repeated every 3 days for a total of 4 times. Mouse health and tumor growth were monitored daily. Tumor size was measured 2-3 times a week, and tumor volume was calculated as: volume (mm^3)=(length×width^2)/2. Mice were euthanized 17 days after B16-F10 cell injection, and tumor tissues were collected for histology study. For untreated mice, the length of some of the tumors reached 15 mm before day 17 and had to be euthanized earlier."}, "[9]": {"settings": "oral administration, 2 mg DHA-dFdC per mouse"}},
  "note": "Read-outs that look alike come from different tables or passages of the source.",
  "data": [
    {"molecule": "CC/C=C\\C/C=C\\C/C=C\\C/C=C\\C/C=C\\C/C=C\\CCC(=O)Nc1ccn(C2OC(CO)C(O)C2(F)F)c(=O)n1", "note": "(stereo not shown) [DHA-dFdC, 4-(N)-docosahexaenoyl 2′, 2′-difluorodeoxycytidine]", "values": [
      {"measurement": "repeat dose-maximum tolerated dose", "setting": "[1]", "value": 50, "unit": "mg/kg"},
      {"measurement": "intrinsic solubility", "setting": "[2]", "value": "~25", "unit": "µg/mL"},
      {"measurement": "H&E histology findings in tumors", "setting": "B16-F10 tumors [3]", "value": "vascular collapse, high desmoplasia, and necrotic areas"},
      {"measurement": "DHA-dFdC left after storage", "setting": "[4]", "value": "19.1%±7.0"},
      {"measurement": "control of pancreatic tumor growth versus gemcitabine", "setting": "pancreatic tumor", "value": "significantly more effective than the molar equivalent dose of gemcitabine"},
      {"measurement": "antitumor activity", "setting": "[5]", "value": "potent and broad spectrum antitumor activity"},
      {"measurement": "bioavailability", "setting": "[6]; female, C57BL/6, mouse, plasma, 2 mg per mouse, oral, in Tween 80/ethanol/water solution", "value": 54, "unit": "%"},
      {"measurement": "Tmax", "setting": "[6]; female, C57BL/6, mouse, plasma, po, 2 mg, oral administration, 2 mg DHA-dFdC per mouse, read-out: Tmax", "value": 1.7, "unit": "h"},
      {"measurement": "Cmax", "setting": "[6]; female, C57BL/6, plasma, oral administration, 2 mg DHA-dFdC per mouse", "value": 10500, "unit": "ng/mL"},
      {"measurement": "AUC(0-t)", "setting": "[6]; female, C57BL/6, plasma, oral administration, 2 mg DHA-dFdC per mouse, read-out: AUC 0-24", "value": 114, "unit": "µg·h/mL"},
      {"measurement": "T1/2α", "setting": "[6]; [9]", "value": 1.07, "unit": "h"},
      {"measurement": "Tmax", "setting": "[6]; [9]", "value": 1.75, "unit": "h"},
      {"measurement": "k12", "setting": "[6]; [9]", "value": 0.56, "unit": "h⁻¹"},
      {"measurement": "survival compared to untreated mice", "setting": "B16-F10 tumors [7]; 250 μg DHA-dFdC per mouse daily for 12 days", "value": "did not significantly affect mouse survival"},
      {"measurement": "mice showing signs of toxicity (body weight decrease of more than 20% or severe tumor ulceration)", "setting": "B16-F10 tumors [7]; in Tween 80/ethanol/water solution, 250 μg per mouse daily", "value": 62.5, "unit": "%"},
      {"measurement": "IC50", "setting": "B16-F10 cells", "value": 1810, "unit": "nM"},
      {"measurement": "IC50", "setting": "M-Wnt cells", "value": 2150, "unit": "nM"},
      {"measurement": "tumor growth delay", "setting": "B16-F10 tumors [8]", "value": 4, "unit": "days"},
      {"measurement": "tumor size / control of tumor growth versus comparison groups", "setting": "B16-F10 tumors [8]", "value": "no significant difference"}
    ]}
  ]
}
